# Data as given in the METLIN SMRT retention time set (Domingo-Almenara et al. 2019).
# Assay: gradient 5% acetonitrile 3 min, to 50% in 2 min, to 85% in 15 min, held 3 min, 100 µL/min
# Conditions: column: Zorbax Extend-C18 2.1 x 50 mm; eluents: water / acetonitrile, 0.1% formic acid
# Procedure, shortened: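 Data were gathered over 3 months by HPLC coupled to a quadrupole time-of-flight mass spectrometer, operated in positive and negative ionization mode. Mixtures of ~100 pure standards ran on a Zorbax Extend-C18 column (2.1 × 50 mm, 1.8 μm) at 100 μL/min, with water and acetonitrile each containing 0.1% formic acid and dead and dwell volumes of 40 μL and 900 μL. Retention time was read from adduct peaks picked by computer and checked manually.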
row,RP-LC retention time [s],SMILES
1,662,COCc1nc(C2CCN(C(=O)Nc3ccc4c(c3)OCCO4)C2)no1 (stereo not given)
2,658,O=C(NC1CCCCC1)c1ccc2ncnc(N3CCCCC3)c2c1
3,944,O=c1ccc(-c2ccccc2F)nn1Cc1nc(-c2ccc3c(c2)OCO3)no1
4,704,Cc1ccc(NC(=O)Nc2cccc(-c3ccc(N4CCOCC4)nn3)c2)cc1
5,1050,CCOC(=O)Cn1c(=O)c2c(nc3n2CC(C)CN3c2cc(C)cc(C)c2)n(C)c1=O (stereo not given)
6,774,O=C(c1cn(-c2cc(N3CCSCC3)ncn2)cn1)N1CCSCC1
7,589,CC(C)CNC(=O)C1(CCO)CCN(Cc2ccccc2)C1 (stereo not given)
8,896,Cc1ccc(S(=O)(=O)N(C)CC2CCOCC2)c(C)c1
9,1000,CC1CCc2c(sc(NC(=O)Cc3ccc(Cl)s3)c2C(N)=O)C1 (stereo not given)
10,951,CCN(CC)S(=O)(=O)c1c(C)nn(C(=O)c2ccccc2OC)c1C
11,1280,Cc1cccc(Sc2nccnc2N2CCCC(C(=O)N3CCN(c4ccccc4F)CC3)C2)c1 (stereo not given)
12,885,O=C(NCc1cccc(Br)c1)C1CCN(c2nnc(-c3ccccc3)o2)CC1
13,770,CC(C)n1cnc2ccc(-c3noc(COc4ccccc4)n3)cc21
14,850,CCN1C(=O)c2cccnc2Sc2cc(NC(=O)c3c(F)cccc3Cl)ccc21
15,917,COc1ccc(-c2nnc(-c3ccc(C)c(S(=O)(=O)NCc4cccs4)c3)o2)cc1OC
16,620,Cc1nn(CC(=O)NCCCN2CCCC2)c(=O)c2nc(-c3ccccc3)sc12
17,949,O=C(NCCc1cccs1)C1CCCN(c2nc3ccsc3c(=O)n2Cc2ccccc2)C1 (stereo not given)
18,935,CC(C)Oc1ccc(NC(=O)C2CCN(S(C)(=O)=O)c3ccccc3O2)cc1 (stereo not given)
19,1130,CCc1nc(-c2cc(S(=O)(=O)N3CCC(C(=O)NC4CCCCCCC4)CC3)c(C)s2)no1
20,593,CCOC(=O)c1noc2ncnc(Nc3ccc(CN4CCCCC4)cc3)c12
21,685,Cc1cccc(CNC(=O)Cn2c(=O)c3nnc(C)n3c3ncccc32)c1
22,1110,COC(=O)C1=CN(CC(=O)NCc2ccc(OC)cc2)S(=O)(=O)N=C1C
23,687,CC(C)Cc1ccc(S(=O)(=O)N2CCc3c(c(CN4CCN(C)CC4)nn3C)C2)cc1
24,748,Cc1ccc(CNC(=O)C2c3ccccc3CC(=O)N2C)cc1 (stereo not given)

row,RP-LC retention time [s],SMILES
1,1110,CSc1cccc(NC(=O)Cn2cccc2-c2nc(-c3ccc4c(c3)OCO4)no2)c1
2,835,COCCNC(=O)C1CCN(c2nc3ccc(-c4ccc(F)cc4)nc3s2)CC1
3,743,CCOC(=O)CNC(=O)N1CCCN(C2=NS(=O)(=O)C(c3ccc(C)cc3)=C2C)CC1
4,1110,Cc1cccc(Oc2cc(N3CCC(C(=O)NCCC4=CCCCC4)CC3)ncn2)c1C
5,628,CCSc1nc(O)cc(=O)[nH]1
6,1040,O=C(Nc1ccc2c(c1)OCCO2)C(=O)c1cccn1Cc1ccccc1
7,649,COc1ccc(-c2cc(NS(=O)(=O)c3cnc[nH]3)n(C3CCS(=O)(=O)C3)n2)cc1 (stereo not given)
8,712,Cc1ccccc1Cn1cc(-c2ccncc2)cc1C(=O)NCC(C)C
9,594,FC(F)(F)c1ccc(CN2CCN(c3cnn4cnnc4c3)CC2)cc1
10,725,C/C=C(/C)C(=O)O[C@H]1CC(C)=CC(=O)[C@@]2(C)CC[C@@](O)(C(C)C)[C@H]12
11,662,O=C(Nc1ccc2c(c1)CN(C(=O)c1ccco1)CC2)c1cnccn1
12,867,COc1ccc(C2CC(=O)N(c3ccc(C)c(F)c3)C(=O)C2)cc1OC
13,548,CN1C(=O)c2cccn2CC1CNC(=O)c1cc(CN2CCOCC2)on1 (stereo not given)
14,840,COC(=O)CN1C(=O)Nc2ccc(C)cc2C1c1ccccc1 (stereo not given)
15,577,O=C(Cn1ccc2c(SCc3ccccc3)nccc21)N1CCN(c2ccccn2)CC1
16,558,COCC(=O)Nc1ccc2nc(N3CCN(C4CCCCC4)CC3)cc(C(=O)O)c2c1
17,647,Cc1cn(C)nc1C(=O)Nc1nnc(-c2cccs2)o1
18,606,O=C1CCCc2cc(S(=O)(=O)NCC3CCN(Cc4cccc(F)c4)CC3)ccc2N1
19,680,O=C(CSc1ccc(N2CCCC(C(=O)NC3CC3)C2)nn1)Nc1ccc(F)c(F)c1 (stereo not given)
20,1130,CCOc1ccccc1N1CCN(S(=O)(=O)c2nn(CC)cc2C(=O)NCCC(C)C)CC1
21,929,CCc1nn2c(CNS(=O)(=O)c3cc(F)ccc3F)c(-c3ccccc3)nc2s1
22,611,Cc1nccn1Cc1noc(-c2cccc(F)c2)n1
23,1200,Cc1nc(-n2nc(C)c(Cl)c2C)sc1C(=O)N1CCCCC1

# Further lines, the compound ahead of its results:
row,SMILES,RP-LC retention time [s]
1,O=C(CSc1ccc(N2CCCC(C(=O)NC3CC3)C2)nn1)Nc1ccccc1F (stereo not given),643
2,COc1ccc(-c2nnc(-c3nc(NCc4ccc(C)o4)c4ccccc4n3)o2)cc1,985
3,CC1CCN(S(=O)(=O)c2cc(C(=O)NCc3ccc(Br)cc3)n(C)c2)CC1,1080
4,CC1CCN(c2cc(-n3cnc(C(=O)N4CCC5(CC4)OCCO5)c3)ncn2)CC1,834
5,O=C(CCc1ccccc1)NCCN1CCN(c2ccc(Cl)cc2)CC1,619
6,COCC(=O)NC1CCN(c2ccccc2)C1=O (stereo not given),617
7,O=C(NCc1csc(-c2cccs2)n1)C1CCN(C(=O)c2cccc(Cl)c2)CC1,802
8,CCOc1ccc(-c2noc(Cc3nc(-c4ccccc4Cl)cs3)n2)cc1,1340
9,Cc1ccc2nc(-c3ccccc3)c(Nc3ccc4c(c3)OCO4)n2c1,717
10,Cc1nc(S(=O)(=O)N2CCc3c(c(-c4nnc(-c5ccccc5F)o4)nn3C)C2)cn1C,703
11,O=C(c1ccc2[nH]ccc2c1)N1CCN(C(=O)c2nnn3c2COC(c2ccccc2)C3)CC1 (stereo not given),793
12,COC(=O)c1c(C)[nH]c(C(=O)N2CCCC(C(=O)NCc3ccc4c(c3)OCO4)C2)c1C (stereo not given),720
13,COC[C@@H]1CN(Cc2cc(C)nn2C)C[C@H]1c1ccccn1,559
14,COc1ccc(C2C(C(=O)NC(C)C)c3ccccc3C(=O)N2C)cc1 (stereo not given),730
15,O=C(CSc1ccc(N2CCCC(C(=O)NC3CC3)C2)nn1)NCc1cccc(C(F)(F)F)c1 (stereo not given),678
16,O=C(O)C1CN(C(=O)COc2ccccc2F)C1,604
17,O=C(Cn1cc(-c2nnco2)c2ccccc21)NCc1cccc(Cl)c1,817
18,CCCN(CC1CCOC1)C(=O)Nc1ccccc1C(F)(F)F (stereo not given),871
19,CCOC(=O)Cc1nc(-c2cncc(Br)c2)n[nH]1,673
20,COc1ccc(NC(=O)N(C)CCc2noc(-c3ccc(Cl)cc3)n2)c(OC)c1,959
21,O=C(c1ccc2c(c1)CCCN2S(=O)(=O)c1ccc(Cl)cc1)N1CCOCC1,880
22,O=C1NCCCc2c1oc1ccc(O)cc21,567

row,SMILES,RP-LC retention time [s]
1,O=C(Cc1ccc(Cl)cc1)NCC(=O)N1CCCc2ccccc21,862
2,Cc1ccc(C(=O)NCCc2nc3cccnc3n2C(C)C)cc1C,695
3,CCOc1ccccc1NC(=O)Cn1nc2cc(C)nc(-c3ccccc3)n2c1=O,838
4,Cc1cc(C(=O)NCCN2CCN(C(=O)c3cccs3)CC2)c(C)o1,563
5,CN1CCN(C(=O)c2ccc(-c3nnc4ccc(NC(=O)C5CCC5)cn34)cc2)CC1,587
6,CC1(C)CS(=O)(=O)N(c2cccc(C(=O)NCCc3c[nH]c4ccccc34)c2)C1=O,825
7,CCN1C(=O)C2CCC(=O)N2c2ccc(C(=O)NCc3ccco3)cc21 (stereo not given),674
8,O=c1c2cc3c(cc2nc(SCc2nc(-c4cccc(F)c4)no2)n1Cc1ccccc1)OCO3,1250
9,O=C(O)CCC1CCCN(S(=O)(=O)c2ccc(F)cc2)C1 (stereo not given),782
10,N#Cc1ccc(C(=O)N2CCN(c3cc(-c4ccc(Cl)cc4)[nH]n3)CC2)cc1,826
11,O=C(Nc1nc(CC(=O)N2CCN(C(=O)C3CCCO3)CC2)cs1)c1ccsc1 (stereo not given),606
12,Cn1cc(CC(=O)NCc2cc(-c3ccc4c(c3)OCO4)on2)c2ccccc21,813
13,CC(=O)Oc1ccc(OC(C)=O)c2c1CC(C)=C(C)C2,1110
14,CC(C)Cn1cc(S(=O)(=O)Nc2ccc(Cl)cc2F)c2cccnc21,1010
15,COCCCNC(=O)Cn1ccc2c(SCc3ccc(C)cc3)nccc21,648
16,C=CCN1C[C@H](C)N([C@H](c2ccccc2)c2ccc(C(=O)N(CC)CC)cc2)C[C@H]1C,702
17,Cc1nc(C)c(C(=O)NCC23CCCC=C2N(CC2CC2)C(=O)CC3)s1 (stereo not given),785
18,CC(=O)c1ccc(NC(=O)c2cnn3c4c(cnc23)CCCCCC4)cc1,1060
19,O=C(O)c1cccc(Nc2c(-c3cccc(Br)c3)nc3cnccn23)c1,748
20,CCc1ccccc1NC(=O)Cn1ncc2c(c1=O)N(CC1CC1)C(=O)CS2,757
21,CCCNC(=O)N(C)Cc1cccnc1OCC,680
